This is an account of results in patent US20110166079A1, “METHODS OF TREATING CANCER WITH APOE PEPTIDES” (COGNOSCI, INC., priority 2008, published 2011).

Experiment [1] concerns BCR/Abl+ K562 CML cell line. Description: Growth of BCR/Abl+ K562 CML cells (trypan blue counting). It counts as cell-based. On the procedure:
Cells (20 mL) were seeded in a T-75 flask at a concentration of 0.25×10^6 cells/mL. Each day after seeding, 0.20 mL of cell suspension was removed and centrifuged to collect cells. The cell pellet was resuspended in 500 μL of serum free media and 100 μL of trypan blue stain was added and incubated for 5 minutes before counting the […] cells with a hemacytometer.

For the next experiment, the system named is Jurkat T-cells. Put plainly: Growth of Jurkat T-cell leukemia cells. It counts as cell-based, human. To be noted: 1 μM COG112, FIG. 9. As for the experimental part:
To determine whether ApoE peptides could be therapeutic for T-cell leukemia, the effect of COG112 on the growth rate of Jurkat T-cells, a human acute T-cell leukemia cell line, was assessed. Jurkat T-cells (2×10^4 cells per well in a 6 well plate) were grown in 2 mL of media in the absence or presence of 1 μM COG112 added upon plating the cells. Cell growth was measured using a hemacytometer following daily removal of a small aliquot for counting.

In another experiment the test system is ERK, Akt, IκK and NFκB. Description: Immunoblotting of phospho- and total ERK, Akt, IκK and NFκB in B-CLL cells. It counts as cell-based, human. The conditions noted are these: 2 μM COG112, 3 hours, relative to untreated cells. The source says:
The results of the two previous series of experiments indicate that SET overexpression in CLL cells results in decreased PP2A activity which contributes to the persistence of an anti-apoptotic state in these cells. COG peptides, such as COG112, can induce apoptosis in CLL cells, which may occur through the binding of COG peptides to the SET protein, thereby relieving the suppression of PP2A activity. To further elucidate the mechanism of the cytotoxic effect of COG peptides on CLL cells, the effect of COG112 treatment on the phosphorylation state of key signal transduction proteins and PP2A activity in B-CLL cells is evaluated. […]
Immunoblotting is performed on the extracts from COG112 treated and untreated CLL cells to determine the relative levels of phospho-and total-(phosphorylated plus non-phosphorylated) ERK, Akt, IκK and NFκB. Specifically, cell extracts obtained by the method above will be analyzed to determine the protein concentration of each lysate using the BCA assay kit (Pierce). […] Protein bands are visualized and quantitated using an Odyssey Infrared scanner (LiCor). This method allows for simultaneous quantitation of the phospho-Akt using the emission of the 800 nm channel and of the total Akt using the emission of the 680 nm channel. Following the initial read, a rabbit anti-β-Actin antibody is incubated with the membrane for 1 hour and the membrane is washed. […]
(Immunoblotting shows a protein as a band on a membrane.)

For another experiment, the system named is BCR/ABL fusion protein. Put plainly: Phospho-BCR/ABL Western blot in K562 cells. The class given is cell-based. The conditions noted are these: COG112 0.5 or 1 μM, 24 hours, FIG. 8A. As for the experimental part:
As discussed above, constitutive activation of the BCR/ABL fusion protein produced by the Philadelphia chromosome (e.g. product of the t(9;22)(q34;q11) translocation) is the primary causative factor in the persistent signaling that leads to unrestrained cell proliferation and survival in CML. […] Cell lysates were prepared and subject to Western blot analysis to detect activated phospho-BCR/ABL.

A further experiment concerns PP2A. Put plainly: PP2A activity in K562 CML cells (immunoprecipitation / phosphate release). It counts as cell-based. To be noted: COG112 0.5 μM or 1 μM, 24 hours, FIG. 8B.
In a further experiment the test system is Akt kinase. Put plainly: LPS-induced phosphorylation of Akt kinase in BV2 microglial cells (Western blot densitometry). It counts as cell-based, mouse. To be noted: 10 ng/mL LPS, 1 μM COG112, normalized to actin, FIG. 2C. As for the experimental part:
To determine if COG peptides could also suppress activation of the upstream Akt kinase, BV2 microglial cells were treated with 10 ng/mL LPS alone or in the presence of 1 μM COG112 (SEQ ID NO: 2) peptide. Cell lysates were run on 10% polyacrylamide gels and subsequently transferred to nitrocellulose membranes. Blots were probed with an anti-phospho-Akt antibody or an antibody to actin. Densitometry analysis of the western blots was conducted and the signals from phosphorylated Akt kinase were normalized to those from actin.

The subject of a further experiment is B-CLL cells. Description: Annexin V / propidium iodide apoptosis assay on B-CLL cells. The class given is cell-based, human. As for the experimental part:
In a first series of experiments, apoptosis assays using Annexin V staining were performed on freshly isolated B-CLL cells to determine if COG112 could reverse the anti-apoptotic state in these cells and induce apoptosis. […] Apoptosis was measured using the Annexin V-FITC apoptosis detection kit (BD Biosciences-Pharmingen). COG-treated and untreated cells were Annexin V-FITC- and propidium iodide-stained for 15 minutes in 1× binding buffer (10 mM HEPES, pH 7.4, 140 mM NaCl, 2.5 mM CaCl2) and analyzed by flow cytometry. One aliquot of cells was treated with 100 μg/mL etoposide as a positive control for apoptosis induction.

Consider “Ac-RQIKIWFQNRRMKWKKCLRVRLASHLRKLRKRLL-NH2 (N-terminus and C-terminus assumed) [COG112]”, for which the “K562 cell growth at reduced concentrations” value in experiment [1] (1 μM COG112, 75 nM Imatinib, alone or combined, FIG. 7B) was “suboptimal inhibition”. Also, in experiment [1] (dose response of COG112, Imatinib 1 μM positive control, FIG. 7A), the K562 cell growth result is on record as “dose dependent inhibition”. In addition, the “proliferation of Jurkat T-cells” value in the experiment on Jurkat T-cells is “significantly inhibited”. In the experiment with ERK, Akt, IκK and NFκB, the “quantity of phosphorylated proteins (ERK, Akt, IκK, NFκB)” value was “significant reduction”. Also, the “level of phosphorylated BCR/ABL” value in the experiment on BCR/ABL fusion protein was “dose-dependent reduction”. For the same substance, in the experiment on PP2A, the PP2A activity entry is recorded as “robust activation”. Moreover, the “LPS-induced phosphorylation of the Akt kinase” value in the experiment with Akt kinase was “significantly decreased”. In addition, the “ED50 for induction of apoptosis” value in the experiment with B-CLL cells (B-CLL cells, Annexin V) is on record as “closely mirrored the ED50 for cytotoxicity”. Also, the “apoptosis (Annexin-V+/propidium iodide+ cells)” value with B-CLL cells (increasing concentrations of COG112, flow cytometry, FIG. 5) is reported as “dose-dependent increase in apoptosis”.
